Patent US20110311483A1, “CRTH2 MODULATORS” (IRONWOOD PHARMACEUTICALS, INC., priority 2010, published 2011)

Experiments:
CRTH2 [1] = molecular target: T1, CRTH2 (Homo sapiens, UniProt Q9Y5Y4); assay: DPBS CD11b Antagonist Assay (CD11b expression in eosinophils, polymorphonuclear cells challenged with 15R-Methyl-PGD2); assay type: cell-based; settings: polymorphonuclear cells in PBS with CaCl2 and MgCl2; agonist 15R-Methyl-PGD2 10 nM; flow cytometry
T1 construct: polymorphonuclear cells (0.5 ml; 10^6/ml cells) in PBS containing 0.9 mM CaCl2 and 0.5 mM MgCl2) were preincubated with various concentrations of test compounds; endogenous in cells; host or cells: polymorphonuclear cells (eosinophils gated by side scatter and VLA-4)
T1 sequence (Q9Y5Y4 1-395): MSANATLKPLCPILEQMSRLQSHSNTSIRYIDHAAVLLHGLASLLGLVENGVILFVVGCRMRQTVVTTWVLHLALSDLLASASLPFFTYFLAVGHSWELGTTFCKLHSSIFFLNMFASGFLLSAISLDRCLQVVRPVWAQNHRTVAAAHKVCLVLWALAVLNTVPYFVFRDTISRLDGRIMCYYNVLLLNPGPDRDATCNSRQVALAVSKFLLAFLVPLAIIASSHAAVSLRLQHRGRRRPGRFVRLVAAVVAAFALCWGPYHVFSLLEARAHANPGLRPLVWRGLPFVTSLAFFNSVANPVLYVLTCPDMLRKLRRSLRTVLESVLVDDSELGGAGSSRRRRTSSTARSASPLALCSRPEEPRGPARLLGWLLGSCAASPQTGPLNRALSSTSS
Description: (§1) Human Whole Blood CD11b Antagonist Assay (modified from Nicholson, et al. Pulmonary Pharmacology and Therapeutics: 20 (2007); 52-59). The potential CRTH2 antagonist activity of certain compounds was tested in human whole blood using an assay that tests the ability of the compounds to block the CD11b expression in eosinophils by 15-R-methyl-PGD2. A CRTH2 antagonist should block CD11b expression by subsequently added 15-Methyl-PGD2. Human whole blood (200 μL) was incubated at 37° C. for 10 minutes in the presence of various concentrations of test compounds before being challenged with the agonist 15R-Methyl-PGD2 (10 nM). Reactions were terminated by the addition of ice-cold PBS+0.5% BSA+2 m MEDTA (1 mL) and centrifugation (300×g for 5 minutes at 4° C.) Cells were then incubated at 4° C. for 10 min in the presence of human IgG. Cells were then incubated for 30-45 min with a mixture of PE-Cy5-labeled mouse anti-human CD16 (10 μl; BD Biosciences) and FITC-labeled mouse anti-human CD11b (10 μL; Beckman Coulter.) After rinsing (1 mL ice-cold PBS+0.5% BSA+2 mMEDTA), red blood cells were lysed by the addition of 1 mL ice-cold H2O to the cell pellet for 30 sec-1 min immediately followed by the addition of 3.5% NaCl (300 μL.) Cells were then rinsed (2×−1 ml ice cold PBS+0.5% BSA+2 m MEDTA) and fixed in PBS containing 1% formaldehyde. The distribution of fluorescence intensities was measured by flow cytometry. Eosinophils were gated out on the basis of their granularity (high side scatter) and absence of CD-16. CD11b was then measured on this eosinophil population on the basis of fluorescence due to FITC. DPBS CD11b Antagonist Assay. The potential CRTH2 antagonist activity of certain compounds was tested using a CD11b expression assay using essentially the method described by Monneret et al. (J Pharmacol Exp Ther 304:349-55, 2003). Briefly, polymorphonuclear cells (0.5 ml; 10^6/ml cells) in PBS containing 0.9 mM CaCl2 and 0.5 mM MgCl2) were preincubated with various concentrations of test compounds at room temperature for 10 minutes before they were challenged with the agonist 15R-Methyl-PGD2 (10 nM). The incubations were terminated by the addition of ice-cold FACSFlow (BD Biosciences; Cat# 342003) and centrifugation (400 g for 5 minutes at 4° C.). The cells were then incubated for 30 minutes at 4° C. with a mixture of PE-labeled mouse anti-human VLA-4 (5 μl; BD Biosciences) and FITC-labeled mouse anti-human CD11b (10 μl; Beckman Coulter). The cells were then incubated with Optilyse C (0.25 ml; Beckman Coulter) for 15 minutes, centrifuged, and then fixed in PBS (0.4 ml; calcium and magnesium free) containing 1% formaldehyde. The distribution of fluorescence intensities among 60,000 cells was measured by flow cytometry. Eosinophils were gated out on the basis of their granularity (high side scatter) and labeling with VLA-4 (PE fluorescence). CD11b was then measured in the eosinophil region on the basis of fluorescence due to FITC. All data were corrected for the value obtained for the corresponding isotope control antibody.

CRTH2 [2] = molecular target: T1, CRTH2; assay: Human Whole Blood CD11b Antagonist Assay (CD11b expression in eosinophils challenged with 15R-Methyl-PGD2); assay type: cell-based; settings: agonist 15R-Methyl-PGD2 10 nM, flow cytometry
Description: as §1, with “The cells were then incubated with Optilyse C (0.25 ml; Beckman Coulter) for 15 minutes, centrifuged, and then fixed in PBS (0.4 ml; calcium and magnesium free) containing 1% formaldehyde.” left out, “All data were corrected for the value obtained for the corresponding isotope control antibody.” left out

SMILES	IC50 (CRTH2 [1]) [nM]	IC50 (CRTH2 [2]) [nM]
CCOC(=O)Cn1c(C)c(Cc2ccccc2S(=O)(=O)N(C)CC)c2c1CC(C)(C)CC2=O [Compound I-2, Ethyl 2-(3-(2-(N-ethyl-N-methylsulfamoyl)benzyl)-2,6,6-trimethyl-4-oxo-4,5,6,7-tetrahydro-1H-indol-1-yl)acetate]	100 to 600	> 600
CCN(C)S(=O)(=O)c1ccccc1Cc1c2c(n(CC(=O)O)c1C)CC(C)(C)CC2=O [Compound I-3, 2-(3-(2-(N-ethyl-N-methylsulfamoyl)benzyl)-2,6,6-trimethyl-4-oxo-4,5,6,7-tetrahydro-1H-indol-1-yl)acetic acid]	< 10	10 to 100
Cc1c(C(=O)c2ccccc2S(=O)(=O)N2CCOCC2)c2c(n1CC(=O)O)CCC(C)(C)C2 [Compound I-1, 2-(2,5,5-Trimethyl-3-(2-(morpholinosulfonyl)benzoyl)-4,5,6,7-tetrahydro-1H-indol-1-yl)acetic acid]	100 to 600	100 to 600

Next, values leading:

IC50 (CRTH2 [1]) [nM]	IC50 (CRTH2 [2]) [nM]	SMILES
> 600		CCOC(=O)C(C)n1c(C)c(Cc2ccccc2S(=O)(=O)N2CCCC2)c2c1CC(C)(C)CC2=O (stereo not drawn) [Compound I-5, Ethyl 2-(2,6,6-trimethyl-4-oxo-3-(2-(pyrrolidin-1-ylsulfonyl)benzyl)-4,5,6,7-tetrahydro-1H-indol-1-yl)propanoate]
< 10	< 10	Cc1c(Cc2ccccc2S(=O)(=O)N2CCCCC2)c2c(n1CC(=O)O)CC(C)(C)CC2=O [Compound I-4, 2-(2,6,6-Trimethyl-4-oxo-3-(2-(piperidin-1-ylsulfonyl)benzyl)-4,5,6,7-tetrahydro-1H-indol-1-yl)acetic acid]
